# Patent US12121521B2, “Uses of salt-inducible kinase (SIK) inhibitors for treating osteoporosis” (The General Hospital Corporation, priority 2016, dated 2024)
# Assays:
# male mice = assay: Acute YKL-05-099 administration: bone gene expression; assay type: in vivo, mouse; settings: single I.P. dose 20 μmol/kg, 2 hours
# Experimental: Whole cell extracts were generated, followed by immunoblotting. […] RNA was prepared, and gene expression analyzed by RT-qPCR. […] 2 hours later, animals were sacrificed, RNA was prepared from femurs, and gene expression analyzed by RT-qPCR. […] Animals were sacrificed 2 hours after the final dose, and RNA from femurs analyzed for the indicated genes. BGLAP encodes osteocalcin. * indicated p<0.01 versus vehicle, # indicates p<0.05 versus vehicle. (FIGS. 8E to 8K), static and dynamic histomorphometry were performed on the tibia from the same mice as in FIG. 8D. Each data point represents an individual mouse, p values for each difference are shown on the graph. (FIG. 8L) Representative photomicrograph showing increased osteoblasts on cancellous bone surfaces from YKL-05-099-treated mice.
# All animals were housed in the Center for Comparative Medicine at the Massachusetts General Hospital, and all experiments were approved by the hospital's Subcommittee on Research Animal Care. HDAC5-null mice (70) and HDAC4 f/f mice (71) were generously provided by Dr. Eric Olson (University of Texas Southwestern Medical Center, Dallas, TX) and were backcrossed to C57B/6 mice for at least 6 generations. […] In all instances, skeletal phenotypes were evaluated in 8 week-old sex-matched littermates. […]
# male C57B/6 mice = assay: YKL-05-099 dose range once daily for two weeks: histomorphometry; assay type: in vivo, mouse; settings: 18 mg/kg once daily
# Experimental: Right tibia from 8-week-old mice were subjected to bone histomorphometric analysis. The mice were injected 20 mg/kg body weight of calcein and 40 mg/kg body weight of demeclocycline on 7 and 2 days before necropsy, respectively. The tibia was dissected and fixed in 70% ethanol for 3 days. Fixed bones were dehydrated in graded ethanol, then infiltrated and embedded in methylmethacrylate without demineralization. Undecalcified 4-μm-thick longitudinal sections were obtained using microtome (RM2255, Leica Biosystems., IL, USA). Sections were left unstained for dynamic parameters measurement, and consecutive sections were stained with tartrate-resistant acid phosphatase and counterstained with toluidine blue for measurement of cellular parameters. A standard dynamic bone histomorphometric analysis of the tibial metaphysis was done using the Osteomeasure analyzing system (Osteometrics Inc., Decatur, GA, USA). Measurements were performed in the area of secondary spongiosa, 200 μm below the proximal growth plate. The observer was blinded to the experimental genotype at the time of measurement. The structural, dynamic and cellular parameters were calculated and expressed according to the standardized nomenclature (75).
# (§1) Static and dynamic histomorphometry was performed (see FIG. 24). […] Effects on osteoclast differentiation were assessed by TRAP secretion assays and counting multi-nucleated TRAP-positive cells (see FIG. 26). M-CSF signaling in primary macrophages, was assessed by immunoblotting for MCSF-receptor Y723 phosphorylation and ERK1/2 phosphorylation (see FIG. 27).
# [1] = system: M-CSF+RANKL-primed osteoclastogenesis; assay: Osteoclast differentiation of bone marrow-derived macrophages (TRAP); assay type: cell-based, murine; settings: in vitro; read-out: IC50 of inhibition of M-CSF+RANKL-primed osteoclastogenesis
# Experimental: as §1
# [2] = in vivo; cited from earlier work
smiles,measurement,setting,value
COc1ccc(N2C(=O)N(c3c(C)cccc3Cl)Cc3cnc(Nc4ccc(C5CCN(C)CC5)cc4OC)nc32)nc1 [YKL-05-099],RANKL in bone RNA,male mice,RANKL up-regulation
same,SOST in bone RNA,male mice,SOST down-regulation
same,Ob.S/BS,male C57B/6 mice; p<0.01 vs vehicle,16.8±1.3
same,trabecular bone volume,"male C57B/6 mice; p<0.01 vs vehicle, in % (unit assumed)",16.3±2.0
same,Oc.S/BS,male C57B/6 mice; p<0.05 vs vehicle,1.59±0.4
same,IC50,[1],52 nM
same,tolerability,[2],well-tolerated
